Assay results taken from ChEMBL document CHEMBL1124211, “Synthesis and in vitro activity of various derivatives of a novel thromboxane receptor antagonist, (+/-)-(5Z)-7-[3-endo-[(phenylsulfonyl)amino]bicyclo[2.2.1] hept-2-exo-yl]heptenoic acid” (J Med Chem, 1988).

Assays:
[1] = species: Oryctolagus cuniculus; test: Inhibition of rabbit platelet rich plasma aggregation induced by 500 uM of arachidonic acid; format: functional
[2] = species: Rattus norvegicus; test: Inhibitory activity against rat thoracic aorta contraction induced by 30 nM U-46619; format: functional
[3] = species: Rattus norvegicus; test: Inhibition of rat washed platelet aggregation induced by 4 ug/mL of collagen; format: functional
[4] = species: Homo sapiens; test: Effect on the synthesis of metabolites of arachidonic acid in human platelets at dose of 10 uM expressed as percent of radioactivity recovered; format: functional
[5] = species: Homo sapiens; test: Effect on the synthesis of metabolites of arachidonic acid in human platelets at a dose of 1 uM; format: functional
[6] = species: Homo sapiens; test: Effect on cyclooxygenase or lipoxygenase derived products (HHT and HETE) in human washed platelets at a dose of 10 uM as percent of radioactivity recovered; format: functional
[7] = biological target: T1, Thromboxane-A synthase (Homo sapiens) (UniProt P24557); test: Inhibition of thromboxane A2 synthetase from human platelets by 10 uM expressed as percent of radioactivity recovered
T1 sequence (whole entry): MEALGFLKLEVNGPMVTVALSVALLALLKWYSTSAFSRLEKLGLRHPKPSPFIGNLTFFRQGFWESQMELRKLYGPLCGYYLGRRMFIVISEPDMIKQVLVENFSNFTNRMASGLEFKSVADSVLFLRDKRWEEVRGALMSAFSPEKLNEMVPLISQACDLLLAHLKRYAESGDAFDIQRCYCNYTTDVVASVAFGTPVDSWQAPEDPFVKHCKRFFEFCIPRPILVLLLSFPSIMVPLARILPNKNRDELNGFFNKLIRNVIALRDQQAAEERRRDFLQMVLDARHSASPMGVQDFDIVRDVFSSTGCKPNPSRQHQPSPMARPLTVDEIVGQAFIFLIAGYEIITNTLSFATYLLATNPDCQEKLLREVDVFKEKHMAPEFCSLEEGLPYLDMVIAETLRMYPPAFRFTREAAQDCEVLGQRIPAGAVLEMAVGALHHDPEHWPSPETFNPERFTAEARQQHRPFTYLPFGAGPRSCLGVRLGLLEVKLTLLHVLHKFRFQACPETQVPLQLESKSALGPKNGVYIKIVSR

[8] = species: Homo sapiens; test: Effect on cyclooxygenase or lipoxygenase derived products(HHT and HETE) in human washed platelets at dose of 1 uM expressed as percent of radioactivity recovered; format: functional
[9] = species: Homo sapiens; test: Effect on the synthesis of metabolites of arachidonic acid in human platelets; format: functional
[10] = species: Homo sapiens; test: The synthesis of cyclooxygenase or lipoxygenase derived products (HHT and HETE) in human washed platelets at dose of 20 uM; format: functional, organism-based
[11] = species: Homo sapiens; test: Effect on the synthesis of Thromboxane A2 at dose of 20 uM; format: functional, organism-based
[12] = species: Homo sapiens; test: Effect on the synthesis of Thromboxane A2; format: functional, organism-based
[13] = species: Homo sapiens; test: The synthesis of cyclooxygenase or lipoxygenase derived products (HHT and HETE) in human washed platelets; format: functional
[14] = Rattus norvegicus, Thoracic aorta

IC50 ([1]; Oryctolagus cuniculus, Plasma) | IC50 [2, 14] | IC50 ([3]; Rattus norvegicus) | SMILES | further results
7100 nM |  | 52 nM | CN(C)c1ccc(S(=O)(=O)N[C@H]2C3CC[C@H](C3)[C@@H]2C/C=C\CCCC(=O)O)cc1 | 
> 800000 nM | 3410 nM | 450 nM | O=C(O)CCC/C=C\C[C@H]1[C@@H]2CCC(C2)[C@@H]1NC(=O)c1ccccc1 | 
600 nM |  | 2.9 nM | O=C(O)CCC/C=C\C[C@H]1[C@@H]2CCC(C2)[C@@H]1NS(=O)(=O)c1ccc(F)cc1 | 
1700 nM |  | 3.9 nM | COc1ccc(S(=O)(=O)N[C@H]2C3CC[C@H](C3)[C@@H]2C/C=C\CCCC(=O)O)cc1 | 
8200 nM | 3.4 nM | 3.7 nM | O=C(O)CCC/C=C\C[C@H]1[C@@H]2CCC(C2)[C@@H]1NS(=O)(=O)CCc1ccccc1 | 
113000 nM | 111 nM | 26 nM | O=C(O)CCC/C=C\C[C@H]1[C@@H]2CCC(C2)[C@@H]1NS(=O)(=O)Cc1ccccc1 | 
800000 nM |  | 14.5 nM | CCCCCc1ccc(S(=O)(=O)N[C@H]2C3CC[C@H](C3)[C@@H]2C/C=C\CCCC(=O)O)cc1 | 
500 nM |  | 4 nM | O=C(O)CCC/C=C\C[C@H]1[C@@H]2CCC(C2)[C@@H]1NS(=O)(=O)c1ccc(O)cc1 | 
300 nM |  | 2.9 nM | O=C(O)CCC/C=C\C[C@H]1[C@@H]2CCC(C2)[C@@H]1NS(=O)(=O)c1ccc(Cl)cc1 | 
200000 nM | 9.8 nM | 6 nM | O=C(O)CCC/C=C\C[C@H]1[C@@H]2CCC(C2)[C@@H]1NS(=O)(=O)c1ccc(-c2ccccc2)cc1 | 
9000 nM | 14.5 nM | 3 nM | O=C(O)CCC/C=C\C[C@@H]1[C@H](CNNC(=O)Nc2ccccc2)[C@H]2CC[C@H]1O2 | 
640000 nM | 1580 nM | 370 nM | CS(=O)(=O)N[C@H]1C2CC[C@H](C2)[C@@H]1C/C=C\CCCC(=O)O | 

Continued, molecule first:

SMILES | IC50 ([1]; Oryctolagus cuniculus, Plasma) | IC50 [2, 14] | IC50 ([3]; Rattus norvegicus) | further results
Cc1ccccc1S(=O)(=O)N[C@H]1C2CC[C@H](C2)[C@@H]1C/C=C\CCCC(=O)O | 6200 nM | 3.7 nM | 4.3 nM | 
CCCCCCS(=O)(=O)N[C@H]1C2CC[C@H](C2)[C@@H]1C/C=C\CCCC(=O)O | 13300 nM | 17.2 nM | 19 nM | 
O=C(O)CCC/C=C\C[C@H]1[C@@H]2CCC(C2)[C@@H]1NS(=O)(=O)c1ccccc1 (single isomer, unassigned; (-)) |  |  |  | IC50 [1]: 7400 nM; IC50 [2]: 15.3 nM; IC50 [3]: 13.4 nM
O=C(O)CCC/C=C\C[C@H]1[C@@H]2CCC(C2)[C@@H]1NS(=O)(=O)c1ccccc1 (single isomer, unassigned; (+)) |  |  |  | IC50 [1]: 600 nM; IC50 [2]: 0.49 nM; IC50 [3]: 1.8 nM
O=C(O)CCC/C=C\C[C@H]1[C@@H]2CCC(C2)[C@@H]1NS(=O)(=O)c1ccccc1 (stereo in doubt; 14a) [listing 1 of 2 here] |  |  |  | IC50 [2]: 1.4 nM; IC50 [3]: 2.9 nM
O=C(O)CCC/C=C\C[C@H]1[C@@H]2CCC(C2)[C@@H]1NS(=O)(=O)c1ccccc1 (stereo in doubt; 14a) [listing 2 of 2 here] |  |  |  | Recovery [4]: 14.2%; Recovery [5]: 14.3%; Recovery [6]: 23.2%; Recovery [7]: 2.1%; Recovery [8]: 24%
Cc1cccc(S(=O)(=O)N[C@H]2C3CC[C@H](C3)[C@@H]2C/C=C\CCCC(=O)O)c1 | 1700 nM | 3.2 nM | 5.6 nM | 
O=C(O)CCC/C=C\C[C@H]1[C@@H]2CCC(C2)[C@@H]1NS(=O)(=O)CCCc1ccccc1 | 14000 nM | 10.9 nM | 10.9 nM | 
O=C(O)CCC/C=C\C[C@H]1[C@@H]2CCC(C2)[C@@H]1NS(=O)(=O)c1cccc2ccccc12 | 1100 nM | 2.7 nM | 2.7 nM | 
Cc1ccc(S(=O)(=O)N[C@H]2C3CC[C@H](C3)[C@@H]2C/C=C\CCCC(=O)O)cc1 | 500 nM | 0.7 nM | 2.4 nM | 
O=C(O)CCC/C=C\C[C@H]1[C@@H]2CCC(C2)[C@@H]1NS(=O)(=O)c1ccc(C(=O)O)cc1 | 800000 nM |  | > 1000 nM | 
O=C(O)CCC/C=C\C[C@H]1[C@@H]2CCC(C2)[C@@H]1NS(=O)(=O)c1ccc([N+](=O)[O-])cc1 | 1400 nM |  | 8.9 nM | 
COc1ccc2c(c1)c(CC(=O)O)c(C)n2C(=O)c1ccc(Cl)cc1 |  |  |  | Recovery [9]: 28.4%; Recovery [10]: 15%; Recovery [11]: 0.34%
CCc1ccc(S(=O)(=O)N[C@H]2C3CC[C@H](C3)[C@@H]2C/C=C\CCCC(=O)O)cc1 | 4600 nM | 1.5 nM | 3.3 nM | 
O=C(O)c1ccc(OCCn2ccnc2)cc1 |  |  |  | Recovery [9]: 11.8%; Recovery [12]: 0.74%; Recovery [13]: 19.3%
